Data: PubChem BioAssay AID1919009 (Molecular Pharmacology Branch, DTP, NCI, 2023)

Test system: K24384-001-R-PDC complex spheroid growth
Test: Anticancer human tumor K24384-001-R-PDC patient-derived pancreatic adenocarcinoma cell line growth inhibition [AhR]
Details: for IC50: curve of first compound; for viability, T/C: stronger effect = lower value; active = viability on the fitted dose curve at most 10% of control; inactive = the rest
Method in brief: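 Complex tumor spheroids co-cultured with HUVEC and human MSC stroma; AhR antagonists tested in combination with standard-of-care and investigational agents. Top concentration at or near clinical Cmax (else 10 microM), half-log dilutions; growth expressed as percent test/control.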
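Throughout, for viability, T/C: percent of DMSO vehicle-treated spheroid viability set as 100%.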

COc1ccc([C@@H](O)c2cc(-c3ncnc4cc(N5CCOCC5)ccc34)c(F)cc2Cl)nn1 + CC(CO)NC(=O)c1cc(-c2ccc(Cl)cc2)nn(-c2cnn(C)c2)c1=O
2830 nM: IC50 (second compound 1 µM)
3900 nM: IC50 (second compound 0.316 µM)
1480 nM: IC50 (second compound 10 µM)
2920 nM: IC50 (second compound 3.16 µM)
7260 nM: IC50 (second compound 0.1 µM)
inactive: viability, T/C (second compound 0.1 µM, first compound 0.0316 µM) 90.1% | viability, T/C (second compound 0.1 µM, first compound 0.1 µM) 82.7% | viability, T/C (second compound 0.1 µM, first compound 0.316 µM) 97.6% | viability, T/C (second compound 0.1 µM, first compound 1 µM) 75.7% | viability, T/C (second compound 0.1 µM, first compound 3.16 µM) 69.2% | viability, T/C (second compound 0.1 µM, first compound 10 µM) 43% | viability, T/C (second compound 0.316 µM, first compound 0.0316 µM) 103% | viability, T/C (second compound 0.316 µM, first compound 0.1 µM) 99.5% | viability, T/C (second compound 0.316 µM, first compound 0.316 µM) 85.2% | viability, T/C (second compound 0.316 µM, first compound 1 µM) 67.6% | viability, T/C (second compound 0.316 µM, first compound 3.16 µM) 55.1% | viability, T/C (second compound 0.316 µM, first compound 10 µM) 37% | viability, T/C (second compound 1 µM, first compound 0.0316 µM) 86.6% | viability, T/C (second compound 1 µM, first compound 0.1 µM) 90% | viability, T/C (second compound 1 µM, first compound 0.316 µM) 81.1% | viability, T/C (second compound 1 µM, first compound 1 µM) 66.3% | viability, T/C (second compound 1 µM, first compound 3.16 µM) 49% | viability, T/C (second compound 1 µM, first compound 10 µM) 35.8% | viability, T/C (second compound 3.16 µM, first compound 0.0316 µM) 74.5% | viability, T/C (second compound 3.16 µM, first compound 0.1 µM) 69.7% | viability, T/C (second compound 3.16 µM, first compound 0.316 µM) 80.4% | viability, T/C (second compound 3.16 µM, first compound 1 µM) 66% | viability, T/C (second compound 3.16 µM, first compound 3.16 µM) 49.2% | viability, T/C (second compound 3.16 µM, first compound 10 µM) 33.8% | viability, T/C (second compound 10 µM, first compound 0.0316 µM) 71.3% | viability, T/C (second compound 10 µM, first compound 0.1 µM) 75.2% | viability, T/C (second compound 10 µM, first compound 0.316 µM) 68.2% | viability, T/C (second compound 10 µM, first compound 1 µM) 52.1% | viability, T/C (second compound 10 µM, first compound 3.16 µM) 42.5% | viability, T/C (second compound 10 µM, first compound 10 µM) 28.9%

O=C(C=Cn1cnc(-c2cc(C(F)(F)F)cc(C(F)(F)F)c2)n1)NNc1cnccn1 + CC(CO)NC(=O)c1cc(-c2ccc(Cl)cc2)nn(-c2cnn(C)c2)c1=O
212 nM: IC50 (second compound 10 µM)
inactive: viability, T/C (second compound 0.1 µM, first compound 0.00949 µM) 107% | viability, T/C (second compound 0.1 µM, first compound 0.03 µM) 108% | viability, T/C (second compound 0.1 µM, first compound 0.0949 µM) 80.1% | viability, T/C (second compound 0.1 µM, first compound 0.3 µM) 48.7% | viability, T/C (second compound 0.1 µM, first compound 0.949 µM) 34.1% | viability, T/C (second compound 0.1 µM, first compound 3 µM) 28.1% | viability, T/C (second compound 0.316 µM, first compound 0.00949 µM) 102% | viability, T/C (second compound 0.316 µM, first compound 0.03 µM) 99.3% | viability, T/C (second compound 0.316 µM, first compound 0.0949 µM) 74.8% | viability, T/C (second compound 0.316 µM, first compound 0.3 µM) 52% | viability, T/C (second compound 0.316 µM, first compound 0.949 µM) 30.5% | viability, T/C (second compound 0.316 µM, first compound 3 µM) 26.6% | viability, T/C (second compound 1 µM, first compound 0.00949 µM) 86.1% | viability, T/C (second compound 1 µM, first compound 0.03 µM) 102% | viability, T/C (second compound 1 µM, first compound 0.0949 µM) 72.1% | viability, T/C (second compound 1 µM, first compound 0.3 µM) 46.5% | viability, T/C (second compound 1 µM, first compound 0.949 µM) 33.4% | viability, T/C (second compound 1 µM, first compound 3 µM) 28.6% | viability, T/C (second compound 3.16 µM, first compound 0.00949 µM) 77.8% | viability, T/C (second compound 3.16 µM, first compound 0.03 µM) 94.3% | viability, T/C (second compound 3.16 µM, first compound 0.0949 µM) 79.6% | viability, T/C (second compound 3.16 µM, first compound 0.3 µM) 41.8% | viability, T/C (second compound 3.16 µM, first compound 0.949 µM) 29.6% | viability, T/C (second compound 3.16 µM, first compound 3 µM) 23.3% | viability, T/C (second compound 10 µM, first compound 0.00949 µM) 76.2% | viability, T/C (second compound 10 µM, first compound 0.03 µM) 82.3% | viability, T/C (second compound 10 µM, first compound 0.0949 µM) 70.7% | viability, T/C (second compound 10 µM, first compound 0.3 µM) 41% | viability, T/C (second compound 10 µM, first compound 0.949 µM) 29.3% | viability, T/C (second compound 10 µM, first compound 3 µM) 27.3%
236 nM: IC50 (second compound 3.16 µM)
246 nM: IC50 (second compound 1 µM)
298 nM: IC50 (second compound 0.316 µM)
280 nM: IC50 (second compound 0.1 µM)
